Assay in all cases: biochemical
Format in all cases: binding

In assay [1] the target is T1, panel of 442 kinases (Homo sapiens, UniProt Q9BVS4).
T1 construct: purchased Ambit Biosciences (scanMAXX KINOMEscan)
The note with it: kinase RIOK2; for remaining activity at 1 µM: read-out: RIOK2 (% of control at 1 µM).

For assay [2], the target named is T2, panel of 442 kinases (Homo sapiens, UniProt P54762).
T2 construct: purchased Ambit Biosciences (scanMAXX KINOMEscan)
T2 sequence (P54762 18-984): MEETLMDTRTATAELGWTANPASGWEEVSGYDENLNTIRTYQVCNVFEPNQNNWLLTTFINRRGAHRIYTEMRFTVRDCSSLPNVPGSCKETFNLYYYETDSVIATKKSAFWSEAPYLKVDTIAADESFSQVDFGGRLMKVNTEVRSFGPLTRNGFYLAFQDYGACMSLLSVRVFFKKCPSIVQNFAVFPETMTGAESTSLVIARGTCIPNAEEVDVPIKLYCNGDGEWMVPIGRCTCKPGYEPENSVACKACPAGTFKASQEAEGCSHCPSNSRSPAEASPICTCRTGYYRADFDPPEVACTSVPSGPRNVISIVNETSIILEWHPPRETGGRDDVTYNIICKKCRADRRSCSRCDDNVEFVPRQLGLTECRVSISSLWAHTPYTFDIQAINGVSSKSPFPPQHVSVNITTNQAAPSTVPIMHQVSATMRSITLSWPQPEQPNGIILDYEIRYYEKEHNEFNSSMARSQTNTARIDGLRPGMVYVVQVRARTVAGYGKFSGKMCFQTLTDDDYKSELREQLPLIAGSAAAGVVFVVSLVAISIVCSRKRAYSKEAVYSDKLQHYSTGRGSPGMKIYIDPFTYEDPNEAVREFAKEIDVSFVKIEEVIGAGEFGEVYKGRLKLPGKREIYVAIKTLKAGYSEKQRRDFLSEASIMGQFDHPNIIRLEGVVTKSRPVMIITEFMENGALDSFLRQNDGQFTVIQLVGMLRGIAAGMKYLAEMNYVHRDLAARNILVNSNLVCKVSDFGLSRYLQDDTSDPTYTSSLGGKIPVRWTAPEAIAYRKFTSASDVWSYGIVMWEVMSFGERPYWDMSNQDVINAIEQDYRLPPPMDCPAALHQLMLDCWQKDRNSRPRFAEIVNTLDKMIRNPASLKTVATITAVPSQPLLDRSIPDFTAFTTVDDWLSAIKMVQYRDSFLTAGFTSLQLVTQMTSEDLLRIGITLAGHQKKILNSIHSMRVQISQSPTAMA
The following applies: EPHB1; for remaining activity at 1 µM: read-out: % of control at 1 µM.

The target of assay [3] is T3, panel of 442 kinases (Homo sapiens, UniProt Q8NEV4).
T3 construct: purchased Ambit Biosciences (scanMAXX KINOMEscan)
The following applies: kinase MYO3A; for remaining activity at 1 µM: read-out: % of control at 1 µM.

Assay [4] has as its target T4, panel of 442 kinases (Homo sapiens, UniProt P36888).
T4 construct: purchased Ambit Biosciences (scanMAXX KINOMEscan)
T4 sequence (P36888 27-993): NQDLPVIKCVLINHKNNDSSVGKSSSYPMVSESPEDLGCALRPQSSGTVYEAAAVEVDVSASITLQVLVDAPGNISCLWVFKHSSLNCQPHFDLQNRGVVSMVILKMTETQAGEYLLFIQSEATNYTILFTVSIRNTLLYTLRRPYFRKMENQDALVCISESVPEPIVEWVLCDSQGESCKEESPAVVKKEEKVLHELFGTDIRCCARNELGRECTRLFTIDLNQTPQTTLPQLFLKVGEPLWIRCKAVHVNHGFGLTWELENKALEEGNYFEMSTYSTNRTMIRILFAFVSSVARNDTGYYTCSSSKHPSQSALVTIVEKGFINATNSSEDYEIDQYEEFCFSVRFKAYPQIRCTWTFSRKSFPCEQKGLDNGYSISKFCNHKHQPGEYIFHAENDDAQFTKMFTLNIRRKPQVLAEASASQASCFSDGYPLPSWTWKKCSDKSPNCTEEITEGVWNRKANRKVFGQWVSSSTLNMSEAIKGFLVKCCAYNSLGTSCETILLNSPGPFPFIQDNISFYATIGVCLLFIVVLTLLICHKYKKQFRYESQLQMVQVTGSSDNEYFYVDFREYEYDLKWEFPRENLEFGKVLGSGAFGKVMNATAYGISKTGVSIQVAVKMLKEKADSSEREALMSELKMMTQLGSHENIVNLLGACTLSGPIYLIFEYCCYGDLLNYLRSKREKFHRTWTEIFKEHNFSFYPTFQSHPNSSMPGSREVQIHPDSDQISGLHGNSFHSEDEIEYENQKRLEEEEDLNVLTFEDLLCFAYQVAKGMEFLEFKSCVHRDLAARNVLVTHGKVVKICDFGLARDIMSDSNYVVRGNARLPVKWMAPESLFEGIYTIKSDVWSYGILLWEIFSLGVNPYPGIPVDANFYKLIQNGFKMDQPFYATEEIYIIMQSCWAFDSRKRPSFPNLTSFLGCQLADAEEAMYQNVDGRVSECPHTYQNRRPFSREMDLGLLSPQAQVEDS
The following applies: FLT3; for remaining activity at 1 µM: read-out: % of control at 1 µM.

Assay [5] has as its target T5, panel of 442 kinases (Homo sapiens, UniProt P42345).
T5 construct: purchased Ambit Biosciences (scanMAXX KINOMEscan)
The following applies: kinase MTOR; for remaining activity at 1 µM: read-out: % of control at 1 µM.

For assay [6], the target named is T6, panel of 442 kinases (Homo sapiens, UniProt Q9Y2K2).
T6 construct: purchased Ambit Biosciences (scanMAXX KINOMEscan)
The following applies: kinase QSK; for remaining activity at 1 µM: read-out: QSK (% of control at 1 µM).

In assay [7] the target is T7, panel of 442 kinases (Homo sapiens, UniProt Q13555).
T7 construct: purchased Ambit Biosciences (scanMAXX KINOMEscan)
The note with it: CAMK2G; for remaining activity at 1 µM: read-out: % of control at 1 µM.

In assay [8] the target is T8, panel of 442 kinases (Homo sapiens, UniProt P53355).
T8 construct: purchased Ambit Biosciences (scanMAXX KINOMEscan)
The following applies: DAPK1; for remaining activity at 1 µM: read-out: % of control at 1 µM.

The target of assay [9] is T9, panel of 442 kinases (Homo sapiens, UniProt P27448).
T9 construct: purchased Ambit Biosciences (scanMAXX KINOMEscan)
The following applies: kinase MARK3; for remaining activity at 1 µM: read-out: % of control at 1 µM.

The target in assay [10] is T10, panel of 442 kinases (Homo sapiens, UniProt Q13882).
T10 construct: purchased Ambit Biosciences (scanMAXX KINOMEscan)
The note with it: BRK; for remaining activity at 1 µM: read-out: % of control at 1 µM.

Assay [11] deals with T11, panel of 442 kinases (Homo sapiens, UniProt P48736).
T11 construct: purchased Ambit Biosciences (scanMAXX KINOMEscan)
The note with it: kinase PIK3CG; 1 µM; read-out: % of control at 1 µM.

Where [12] appears, read: 10 µM, read-out: % of control at 10 µM.

Structures are written as SMILES.

T6 sequence (Q9Y2K2 whole entry): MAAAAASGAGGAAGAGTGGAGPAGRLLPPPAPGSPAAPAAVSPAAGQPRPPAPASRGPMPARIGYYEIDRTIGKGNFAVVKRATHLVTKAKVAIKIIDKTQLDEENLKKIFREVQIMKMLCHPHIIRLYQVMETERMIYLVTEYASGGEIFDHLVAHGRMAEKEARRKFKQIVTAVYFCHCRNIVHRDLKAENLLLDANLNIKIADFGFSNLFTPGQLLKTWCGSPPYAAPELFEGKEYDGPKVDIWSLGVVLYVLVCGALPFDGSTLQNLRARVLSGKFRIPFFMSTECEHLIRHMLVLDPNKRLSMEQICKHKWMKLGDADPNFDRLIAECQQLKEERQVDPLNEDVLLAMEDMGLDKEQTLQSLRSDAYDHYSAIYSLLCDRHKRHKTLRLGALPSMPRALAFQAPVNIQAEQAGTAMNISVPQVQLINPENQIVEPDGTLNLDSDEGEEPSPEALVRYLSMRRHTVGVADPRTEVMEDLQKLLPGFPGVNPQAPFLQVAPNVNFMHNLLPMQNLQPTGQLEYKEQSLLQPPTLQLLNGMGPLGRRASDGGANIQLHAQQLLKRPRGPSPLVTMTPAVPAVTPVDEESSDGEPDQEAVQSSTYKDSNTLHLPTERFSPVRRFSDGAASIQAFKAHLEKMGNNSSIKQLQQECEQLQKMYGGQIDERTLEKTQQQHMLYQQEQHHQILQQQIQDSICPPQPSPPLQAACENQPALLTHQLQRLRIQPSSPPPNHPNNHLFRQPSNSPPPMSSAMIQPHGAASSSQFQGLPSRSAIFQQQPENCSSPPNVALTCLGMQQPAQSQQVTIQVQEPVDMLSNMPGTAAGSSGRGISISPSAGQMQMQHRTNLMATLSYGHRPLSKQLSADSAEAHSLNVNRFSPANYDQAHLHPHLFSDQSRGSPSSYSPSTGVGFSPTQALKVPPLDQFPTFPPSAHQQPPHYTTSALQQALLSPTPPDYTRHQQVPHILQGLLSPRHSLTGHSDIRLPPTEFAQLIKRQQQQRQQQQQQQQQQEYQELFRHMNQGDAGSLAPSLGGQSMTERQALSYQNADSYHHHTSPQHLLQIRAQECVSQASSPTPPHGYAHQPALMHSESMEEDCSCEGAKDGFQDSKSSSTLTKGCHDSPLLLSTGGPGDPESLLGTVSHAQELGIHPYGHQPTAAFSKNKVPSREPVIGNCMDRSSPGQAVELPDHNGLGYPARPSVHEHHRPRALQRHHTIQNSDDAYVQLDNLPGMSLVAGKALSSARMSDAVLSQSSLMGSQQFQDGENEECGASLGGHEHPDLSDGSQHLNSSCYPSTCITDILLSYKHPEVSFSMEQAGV
T1 sequence (Q9BVS4 whole entry): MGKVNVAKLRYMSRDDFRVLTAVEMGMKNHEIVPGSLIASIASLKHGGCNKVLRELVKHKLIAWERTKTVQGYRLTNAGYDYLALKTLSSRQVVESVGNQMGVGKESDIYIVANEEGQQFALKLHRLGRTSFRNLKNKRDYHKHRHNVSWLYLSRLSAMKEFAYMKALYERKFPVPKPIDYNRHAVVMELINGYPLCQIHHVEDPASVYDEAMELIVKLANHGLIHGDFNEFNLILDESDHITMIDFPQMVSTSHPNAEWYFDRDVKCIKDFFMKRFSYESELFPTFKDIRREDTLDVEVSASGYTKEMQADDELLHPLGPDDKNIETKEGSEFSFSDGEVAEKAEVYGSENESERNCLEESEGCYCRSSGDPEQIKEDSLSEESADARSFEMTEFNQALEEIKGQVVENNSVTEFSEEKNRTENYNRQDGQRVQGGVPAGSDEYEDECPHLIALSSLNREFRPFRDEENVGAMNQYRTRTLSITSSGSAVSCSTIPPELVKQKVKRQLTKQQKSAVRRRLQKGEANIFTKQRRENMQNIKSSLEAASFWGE
T7 sequence (Q13555 whole entry): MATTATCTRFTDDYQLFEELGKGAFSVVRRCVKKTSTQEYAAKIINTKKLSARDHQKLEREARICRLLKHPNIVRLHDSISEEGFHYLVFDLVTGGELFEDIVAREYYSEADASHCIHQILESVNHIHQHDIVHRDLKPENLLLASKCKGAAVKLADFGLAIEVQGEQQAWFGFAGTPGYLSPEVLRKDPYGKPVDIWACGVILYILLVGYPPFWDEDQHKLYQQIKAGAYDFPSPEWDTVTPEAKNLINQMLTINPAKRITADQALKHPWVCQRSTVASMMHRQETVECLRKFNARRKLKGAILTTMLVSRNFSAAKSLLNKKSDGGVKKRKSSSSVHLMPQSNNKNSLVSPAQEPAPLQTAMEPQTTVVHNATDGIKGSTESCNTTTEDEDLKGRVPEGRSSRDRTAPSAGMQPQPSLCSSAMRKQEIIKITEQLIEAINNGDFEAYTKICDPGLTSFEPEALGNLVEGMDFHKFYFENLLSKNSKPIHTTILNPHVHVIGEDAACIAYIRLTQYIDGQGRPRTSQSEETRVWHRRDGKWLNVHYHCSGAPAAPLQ
T3 sequence (Q8NEV4 whole entry): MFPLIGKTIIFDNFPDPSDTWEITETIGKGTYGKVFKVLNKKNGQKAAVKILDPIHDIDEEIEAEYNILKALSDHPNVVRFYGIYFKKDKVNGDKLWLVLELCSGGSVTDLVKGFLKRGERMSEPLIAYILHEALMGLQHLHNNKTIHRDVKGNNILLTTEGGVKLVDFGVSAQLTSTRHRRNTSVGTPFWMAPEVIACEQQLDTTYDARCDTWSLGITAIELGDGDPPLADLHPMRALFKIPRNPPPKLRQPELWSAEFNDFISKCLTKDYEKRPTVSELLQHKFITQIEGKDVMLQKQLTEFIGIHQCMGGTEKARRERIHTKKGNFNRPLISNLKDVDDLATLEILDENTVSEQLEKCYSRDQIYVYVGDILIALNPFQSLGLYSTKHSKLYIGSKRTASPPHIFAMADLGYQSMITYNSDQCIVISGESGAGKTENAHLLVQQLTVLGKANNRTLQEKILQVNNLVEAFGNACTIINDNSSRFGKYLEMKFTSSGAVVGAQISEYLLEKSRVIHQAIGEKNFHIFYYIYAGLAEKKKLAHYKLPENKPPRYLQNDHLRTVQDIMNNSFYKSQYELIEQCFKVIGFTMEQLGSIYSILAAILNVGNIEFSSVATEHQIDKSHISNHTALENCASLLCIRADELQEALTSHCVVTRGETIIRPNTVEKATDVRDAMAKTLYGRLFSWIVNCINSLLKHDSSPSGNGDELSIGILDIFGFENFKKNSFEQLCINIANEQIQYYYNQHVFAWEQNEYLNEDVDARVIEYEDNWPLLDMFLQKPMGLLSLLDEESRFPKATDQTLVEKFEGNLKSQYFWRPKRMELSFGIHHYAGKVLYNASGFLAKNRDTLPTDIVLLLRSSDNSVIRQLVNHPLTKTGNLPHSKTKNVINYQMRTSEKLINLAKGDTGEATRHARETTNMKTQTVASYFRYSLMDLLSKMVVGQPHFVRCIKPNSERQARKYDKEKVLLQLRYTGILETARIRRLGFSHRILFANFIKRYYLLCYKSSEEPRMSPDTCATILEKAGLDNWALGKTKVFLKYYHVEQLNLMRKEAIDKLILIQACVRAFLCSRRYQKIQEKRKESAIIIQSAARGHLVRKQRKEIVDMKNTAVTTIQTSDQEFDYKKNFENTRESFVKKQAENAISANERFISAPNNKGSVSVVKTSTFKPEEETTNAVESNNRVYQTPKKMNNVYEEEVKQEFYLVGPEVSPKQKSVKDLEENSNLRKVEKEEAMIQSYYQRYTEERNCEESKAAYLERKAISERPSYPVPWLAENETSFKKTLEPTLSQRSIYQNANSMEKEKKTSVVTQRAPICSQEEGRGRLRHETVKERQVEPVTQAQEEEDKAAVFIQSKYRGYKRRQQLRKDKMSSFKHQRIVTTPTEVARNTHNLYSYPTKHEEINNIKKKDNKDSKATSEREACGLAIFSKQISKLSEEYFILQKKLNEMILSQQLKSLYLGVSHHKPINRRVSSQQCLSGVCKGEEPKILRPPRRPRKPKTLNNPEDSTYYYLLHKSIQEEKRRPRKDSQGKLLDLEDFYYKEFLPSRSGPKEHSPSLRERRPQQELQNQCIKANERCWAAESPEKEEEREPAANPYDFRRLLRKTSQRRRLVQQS
T9 sequence (P27448 whole entry): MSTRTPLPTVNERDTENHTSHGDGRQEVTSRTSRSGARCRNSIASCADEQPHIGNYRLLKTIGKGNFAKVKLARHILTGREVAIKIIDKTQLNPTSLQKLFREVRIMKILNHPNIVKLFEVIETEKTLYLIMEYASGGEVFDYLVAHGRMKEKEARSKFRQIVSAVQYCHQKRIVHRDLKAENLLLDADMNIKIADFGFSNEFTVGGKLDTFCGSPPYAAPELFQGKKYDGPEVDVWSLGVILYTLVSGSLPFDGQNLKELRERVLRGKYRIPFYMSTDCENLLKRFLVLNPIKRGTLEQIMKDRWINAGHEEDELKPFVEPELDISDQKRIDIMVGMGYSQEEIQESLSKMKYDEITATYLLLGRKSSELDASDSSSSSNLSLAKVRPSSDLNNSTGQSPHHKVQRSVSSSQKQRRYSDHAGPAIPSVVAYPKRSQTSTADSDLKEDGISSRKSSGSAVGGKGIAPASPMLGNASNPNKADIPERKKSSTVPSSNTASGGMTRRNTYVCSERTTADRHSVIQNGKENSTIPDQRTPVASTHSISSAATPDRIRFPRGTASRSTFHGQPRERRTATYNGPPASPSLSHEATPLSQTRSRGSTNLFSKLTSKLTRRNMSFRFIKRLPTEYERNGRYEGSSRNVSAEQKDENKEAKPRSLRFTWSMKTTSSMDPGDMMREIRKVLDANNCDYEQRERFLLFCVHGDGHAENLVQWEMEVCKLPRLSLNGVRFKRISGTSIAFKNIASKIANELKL

Consider `Nc1cc(C(F)(F)F)c(-c2cc(N3CCOCC3)nc(N3CCOCC3)n2)cn1` [Buparlisib], for which the remaining activity at 1 µM on panel of 442 kinases [1] is 100%; at panel of 442 kinases [2] it was 88%; at panel of 442 kinases [3] it was 90%; at panel of 442 kinases [4] it was 90%; on panel of 442 kinases [5], 20%; at panel of 442 kinases [6] it was 100%. The remaining activity at 1 µM on panel of 442 kinases [7] worked out at 100%; on panel of 442 kinases [8], 93%; on panel of 442 kinases [9] it was 97%; on panel of 442 kinases [10], 100%. For the same molecule, the remaining activity at 10 µM is 100% at panel of 442 kinases [1] (10 µM, read-out: RIOK2 (% of control at 10 µM)); 100% at panel of 442 kinases [2] (setting [12]); 100% on panel of 442 kinases [3] (setting [12]); 81% on panel of 442 kinases [4] (setting [12]); 4.6% at panel of 442 kinases [5] (setting [12]); 100% at panel of 442 kinases [6] (10 µM, read-out: QSK (% of control at 10 µM)). Further, the remaining activity at 10 µM came to 100% on panel of 442 kinases [7] (setting [12]), 77% at panel of 442 kinases [8] (setting [12]), 100% on panel of 442 kinases [9] (setting [12]) and 100% at panel of 442 kinases [10] (setting [12]).

For the molecule `Cn1c(=O)n(-c2ccc(C(C)(C)C#N)cc2)c2c3cc(-c4cnc5ccccc5c4)ccc3ncc21` [Dactolisib, 2-methyl-2-[4-(3-methyl-2-oxo-8-quinolin-3-yl-2,3-dihydroimidazo[4,5-c]quinolin-1-yl)-phenyl] propionitrile], the remaining activity at 1 µM was 65% on panel of 442 kinases [1]; 100% at panel of 442 kinases [2]; 38% at panel of 442 kinases [11]; 88% at panel of 442 kinases [3]; 67% at panel of 442 kinases [4]; 0% on panel of 442 kinases [5]. Also, the remaining activity at 1 µM at panel of 442 kinases [6] is 100%; at panel of 442 kinases [7] it was 88%; on panel of 442 kinases [8], 76%; on panel of 442 kinases [9], 100%; on panel of 442 kinases [10] it was 90%.

Consider `FC(F)c1nc2ccccc2n1-c1nc(N2CCOCC2)nc(N2CCOCC2)n1` [ZSTK474, 2-(difluoromethyl)-1-[4,6-di(4-morpholinyl)-1,3,5-triazin-2-yl]-1H-benzimidazole], for which the remaining activity at 1 µM at panel of 442 kinases [1] was determined as 39%; at panel of 442 kinases [2] it was 99%; on panel of 442 kinases [11] it was 0%; on panel of 442 kinases [3] it was 99%; at panel of 442 kinases [4], 100%; on panel of 442 kinases [5] it was 0.75%. For the same molecule, the remaining activity at 1 µM at panel of 442 kinases [6] amounted to 65%; at panel of 442 kinases [7], 100%; on panel of 442 kinases [8], 86%; at panel of 442 kinases [9], 100%; at panel of 442 kinases [10] it was 91%.

Turning to `COc1ncc(-c2ccc3nccc(-c4ccnnc4)c3c2)cc1NS(=O)(=O)c1ccc(F)cc1F` [Omipalisib], the remaining activity at 1 µM came to 100% at panel of 442 kinases [1]; 100% on panel of 442 kinases [2]; 0% on panel of 442 kinases [11]; 100% on panel of 442 kinases [3]; 100% on panel of 442 kinases [4]; 0% on panel of 442 kinases [5]. Besides, the remaining activity at 1 µM at panel of 442 kinases [6] is 100%; on panel of 442 kinases [7], 100%; on panel of 442 kinases [8], 93%; on panel of 442 kinases [9], 100%; at panel of 442 kinases [10] it was 91%.

The record behind these values is paper PMC5564600 (Oncotarget, 2017).
